Assay results as given in patent US20240199546A1, “INHIBITORS OF SOLUTE CARRIER FAMILY 6A MEMBER 19 (SLC6A19) AND METHODS OF USE THEREOF” (Maze Therapeutics, Inc., priority 2022, published 2024).

Biological target: T1, human SLC6A19 and TMEM27 (Homo sapiens, UniProt Q695T7)
T1 construct: expressed in transfected cells
T1 sequence (Q695T7 1-634): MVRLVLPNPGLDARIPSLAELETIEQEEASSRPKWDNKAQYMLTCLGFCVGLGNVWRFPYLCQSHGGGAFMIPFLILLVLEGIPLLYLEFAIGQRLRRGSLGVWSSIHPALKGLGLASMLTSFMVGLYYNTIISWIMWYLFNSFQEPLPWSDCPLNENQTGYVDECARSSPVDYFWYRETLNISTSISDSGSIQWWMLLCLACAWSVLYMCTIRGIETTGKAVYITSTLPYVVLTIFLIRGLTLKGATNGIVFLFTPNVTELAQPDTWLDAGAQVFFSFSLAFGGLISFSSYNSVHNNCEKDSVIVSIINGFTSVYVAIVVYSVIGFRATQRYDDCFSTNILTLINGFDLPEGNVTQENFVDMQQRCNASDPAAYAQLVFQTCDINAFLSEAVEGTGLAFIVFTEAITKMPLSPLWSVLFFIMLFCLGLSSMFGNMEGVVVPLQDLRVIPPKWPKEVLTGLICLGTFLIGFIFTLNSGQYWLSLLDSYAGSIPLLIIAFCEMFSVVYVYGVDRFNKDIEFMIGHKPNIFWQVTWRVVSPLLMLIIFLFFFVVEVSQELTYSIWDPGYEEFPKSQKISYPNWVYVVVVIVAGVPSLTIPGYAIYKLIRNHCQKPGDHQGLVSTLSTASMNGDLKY
T1 sequence (Q9HBJ8 15-222 partner): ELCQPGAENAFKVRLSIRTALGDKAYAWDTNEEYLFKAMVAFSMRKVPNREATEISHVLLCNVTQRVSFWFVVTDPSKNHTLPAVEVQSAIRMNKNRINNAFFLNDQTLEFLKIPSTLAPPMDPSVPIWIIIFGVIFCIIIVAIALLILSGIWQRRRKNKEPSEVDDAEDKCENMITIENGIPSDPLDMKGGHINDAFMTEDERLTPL
Assay: Radiolabelled (3H) leucine uptake in CHO cells with doxycycline-inducible expression of human SLC6A19 and TMEM27 (Example B-1)
Format: cell-based
Conditions: CHO cells with doxycycline-inducible expression of human SLC6A19 and TMEM27, read-out: SLC6A19_Radioligand Uptake Assay IC50
Outline: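 CHO cells were induced with doxycycline for 18 h at 37 °C, washed in HBSS, then exposed to compounds for 1 h: 8-point, 3-fold dilutions in duplicate, 0.5% DMSO final. Uptake measured by scintillation counting after 2 h shaking. Activity normalized with positive control as 0% and DMSO as 100%.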

Row | SMILES | IC50 [nM]
1 | C[C@H]1CCN(C(=O)NCc2cc3cc(F)c(OCc4cscn4)cc3[nH]2)C1 [Compound 388, (S)-N-((5-fluoro-6-(thiazol-4-ylmethoxy)-1H-indol-2-yl)methyl)-3-methylpyrrolidine-1-carboxamide] | 336
2 | CSc1cc2cc(CNC(=O)C3(C)CC3)[nH]c2cc1OCc1ccon1 [Compound 391, N-((6-(isoxazol-3-ylmethoxy)-5-(methylthio)-1H-indol-2-yl)methyl)-1-methylcyclopropane-1-carboxamide] | 225
3 | CC1(C(=O)NCc2cc3cc(Cl)c(OCCC4CCC4)cc3[nH]2)CC1 [Compound 394, N-((5-chloro-6-(2-cyclobutylethoxy)-1H-indol-2-yl)methyl)-1-methylcyclopropane-1-carboxamide] | 676
4 | Cc1cc(COc2cc3[nH]c(CNC(=O)C4(C)CC4)cc3cc2Cl)sn1 [Compound 398, N-((5-chloro-6-((3-methylisothiazol-5-yl)methoxy)-1H-indol-2-yl)methyl)-1-methylcyclopropane-1-carboxamide] | 599
5 | Cc1cc(COc2cc3[nH]c(CNC(=O)C4(C)CC4)cc3cc2Cl)ns1 [Compound 399, N-((5-chloro-6-((5-methylisothiazol-3-yl)methoxy)-1H-indol-2-yl)methyl)-1-methylcyclopropane-1-carboxamide] | 429
6 | CC1(C(=O)NCc2cc3cc(Cl)c(OCc4ncsc4Cl)cc3[nH]2)CC1 [Compound 400, N-((5-chloro-6-((5-chlorothiazol-4-yl)methoxy)-1H-indol-2-yl)methyl)-1-methylcyclopropane-1-carboxamide] | 556
7 | O=C(NCc1cc2cc(OC(F)(F)F)c(OCc3ccon3)cc2[nH]1)N1CCC1 [Compound 416, N-((6-(isoxazol-3-ylmethoxy)-5-(trifluoromethoxy)-1H-indol-2-yl)methyl)azetidine-1-carboxamide] | 379
8 | O=C(NCc1cc2cc(OC(F)(F)F)c(OCc3cocn3)cc2[nH]1)N1CCCC1 [Compound 417, N-((6-(oxazol-4-ylmethoxy)-5-(trifluoromethoxy)-1H-indol-2-yl)methyl)pyrrolidine-1-carboxamide] | 394
9 | O=C(NCc1cc2cc(Cl)c(CCc3cscn3)cc2[nH]1)N1CCCC1 [Compound 418, N-((5-chloro-6-(2-(thiazol-4-yl)ethyl)-1H-indol-2-yl)methyl)pyrrolidine-1-carboxamide] | 163
10 | O=C(NCc1cc2cc(OC(F)(F)F)c(OCc3ccon3)cc2[nH]1)N1CCCC1 [Compound 420, N-((6-(isoxazol-3-ylmethoxy)-5-(trifluoromethoxy)-1H-indol-2-yl)methyl)pyrrolidine-1-carboxamide] | 355
11 | O=C(NCc1cc2c(F)cc(OCc3cscn3)cc2[nH]1)N1CCC1 [Compound 422, N-((4-fluoro-6-(thiazol-4-ylmethoxy)-1H-indol-2-yl)methyl)azetidine-1-carboxamide] | 337
12 | O=C(NCc1cc2c(F)cc(OCc3ccon3)cc2[nH]1)N1CCC1 [Compound 423, N-((4-fluoro-6-(isoxazol-3-ylmethoxy)-1H-indol-2-yl)methyl)azetidine-1-carboxamide] | 198
13 | Cc1cc(COc2cc(F)c3cc(CNC(=O)N4CCC4)[nH]c3c2)on1 [Compound 427, N-((4-fluoro-6-((3-methylisoxazol-5-yl)methoxy)-1H-indol-2-yl)methyl)azetidine-1-carboxamide] | 634
14 | O=C(NCc1cc2cc(F)c(OCc3cocn3)cc2[nH]1)C1CC1 [Compound 428, N-((5-fluoro-6-(oxazol-4-ylmethoxy)-1H-indol-2-yl)methyl)cyclopropanecarboxamide] | 161
15 | O=C(NCc1cc2cc(Cl)c(OCc3cocn3)cc2[nH]1)C1CC1 [Compound 429, N-((5-chloro-6-(oxazol-4-ylmethoxy)-1H-indol-2-yl)methyl)cyclopropanecarboxamide] | 215
16 | CC1(C(=O)NCc2cc3cc(OC(F)(F)F)c(OCc4cscn4)cc3[nH]2)CC1 [Compound 434, 1-methyl-N-((6-(thiazol-4-ylmethoxy)-5-(trifluoromethoxy)-1H-indol-2-yl)methyl)cyclopropane-1-carboxamide] | 263
17 | CC(F)(F)C(=O)NCc1cc2cc(Cl)c(OCc3cscn3)cc2[nH]1 [Compound 435, N-((5-chloro-6-(thiazol-4-ylmethoxy)-1H-indol-2-yl)methyl)-2,2-difluoropropanamide] | 133

Row | SMILES | IC50 [nM]
18 | CC(F)(F)C(=O)NCc1cc2cc(F)c(OCc3cscn3)cc2[nH]1 [Compound 436, 2,2-difluoro-N-((5-fluoro-6-(thiazol-4-ylmethoxy)-1H-indol-2-yl)methyl)propanamide] | 97
19 | N#CCC(=O)NCc1cc2cc(Cl)c(OCc3cscn3)cc2[nH]1 [Compound 437, N-((5-chloro-6-(thiazol-4-ylmethoxy)-1H-indol-2-yl)methyl)-2-cyanoacetamide] | 382
20 | CC1(C(=O)NCc2cc3cc(OC(F)(F)F)c(OCc4cocn4)cc3[nH]2)CC1 [Compound 439, 1-methyl-N-((6-(oxazol-4-ylmethoxy)-5-(trifluoromethoxy)-1H-indol-2-yl)methyl)cyclopropane-1-carboxamide] | 327
21 | Cc1cc(COc2cc3[nH]c(CNC(=O)C(C)(F)F)cc3cc2Cl)on1 [Compound 440, N-((5-chloro-6-((3-methylisoxazol-5-yl)methoxy)-1H-indol-2-yl)methyl)-2,2-difluoropropanamide] | 111
22 | Cc1cc(COc2cc3[nH]c(CNC(=O)C(C)(F)F)cc3cc2F)on1 [Compound 441, 2,2-difluoro-N-((5-fluoro-6-((3-methylisoxazol-5-yl)methoxy)-1H-indol-2-yl)methyl)propanamide] | 95.6
23 | Cc1cc(COc2cc3[nH]c(CNC(=O)[C@@H]4CCN4)cc3cc2Cl)on1 [Compound 448, (S)-N-((5-chloro-6-((3-methylisoxazol-5-yl)methoxy)-1H-indol-2-yl)methyl)azetidine-2-carboxamide] | 2750
24 | Cc1cc(COc2cc3[nH]c(CNC(=O)CC4CC4)cc3cc2Cl)on1 [Compound 449, N-((5-chloro-6-((3-methylisoxazol-5-yl)methoxy)-1H-indol-2-yl)methyl)-2-cyclopropylacetamide] | 187
25 | Cc1cc(COc2cc3[nH]c(CNC(=O)c4ccon4)cc3cc2Cl)on1 [Compound 450, N-((5-chloro-6-((3-methylisoxazol-5-yl)methoxy)-1H-indol-2-yl)methyl)isoxazole-3-carboxamide] | 95.1
26 | Cc1cc(CNc2cc3[nH]c(CNC(=O)C4(C)CC4)cc3cc2Cl)no1 [Compound 451, N-((5-chloro-6-(((5-methylisoxazol-3-yl)methyl)amino)-1H-indol-2-yl)methyl)-1-methylcyclopropane-1-carboxamide] | 237
27 | CC(=O)NCc1cc2c(F)cc(OCc3ccon3)cc2[nH]1 [Compound 453, N-((4-fluoro-6-(isoxazol-3-ylmethoxy)-1H-indol-2-yl)methyl)acetamide] | 859
28 | COC(C)COc1cc2[nH]c(CNC(=O)C3(C)CC3)cc2cc1Cl (stereo not shown) [Compound 454, N-((5-chloro-6-(2-methoxypropoxy)-1H-indol-2-yl)methyl)-1-methylcyclopropane-1-carboxamide] | 787
29 | CC(=O)NCc1cc2cc(Cl)c(OCCC3CCCO3)cc2[nH]1 (stereo not shown) [Compound 455, N-((5-chloro-6-(2-(tetrahydrofuran-2-yl)ethoxy)-1H-indol-2-yl)methyl)acetamide] | 3530
30 | CC(=O)NCc1cc2cc(Cl)c(OCCOC3CCC3)cc2[nH]1 [Compound 456, N-((5-chloro-6-(2-cyclobutoxyethoxy)-1H-indol-2-yl)methyl)acetamide] | 4260
31 | CC(=O)NCc1cc2cc(Cl)c(OCC3COCCO3)cc2[nH]1 (stereo not shown) [Compound 457, N-((6-((1,4-dioxan-2-yl)methoxy)-5-chloro-1H-indol-2-yl)methyl)acetamide] | 3640
32 | CC(=O)NCc1cc2cc(Cl)c(OCC3CC3(F)F)cc2[nH]1 (stereo not shown) [Compound 458, N-((5-chloro-6-((2,2-difluorocyclopropyl)methoxy)-1H-indol-2-yl)methyl)acetamide] | 7670
33 | CCOCCOc1cc2[nH]c(CNC(C)=O)cc2cc1Cl [Compound 459, N-((5-chloro-6-(2-ethoxyethoxy)-1H-indol-2-yl)methyl)acetamide] | 505
34 | CO[C@H]1C[C@H](Oc2cc3[nH]c(CNC(C)=O)cc3cc2Cl)C1 [Compound 462, N-((5-chloro-6-((trans)-3-methoxycyclobutoxy)-1H-indol-2-yl)methyl)acetamide] | 2000
